These results are taken from PubChem BioAssay AID330 (DTP/NCI, 2004).

“And” between values parts separate entries of the source, which are not always exact repeats. Equal values may be shown once. Toxic doses and inconclusive results are not listed. Numbered stars: 1 amine (or outer) side, 2 acyl side, 3 side chain; on linkers, the order of the positions; unused ones are H or OH. Bridge positions count the residues as written; N and C are the ends. Square brackets hold non-standard residues; d marks the D form. Peptide text beside a SMILES is read from it. I, II: the chains in the order shown. Actinocin(9to1) = Cc1c2oc3c(C)ccc(C(=O)[*:1])c3nc-2c(C(=O)[*:2])c(N)c1=O; NMeV = CN[CH](C(=O)O)C(C)C; Pip = O=C(O)[CH]1CCCCN1; Sar = CNCC(=O)O

This test concerns P388 leukemia ip, CD2F1 mice, survival T/C. The test can be described thus: NCI In Vivo Anticancer Drug Screen. Data for tumor model P388 Leukemia (intraperitoneal) in CD2F1 (CDF1) mice. To be noted: endpoint: median survival time, higher = longer survival. In a few lines: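 Mice carrying the transplanted tumor received test compound or vehicle. Survival was recorded in each group, and the value is the treated-group measurement divided by that of the vehicle-treated control group.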

The mark [1] stands for this setting: dose: 50.0 mg/kg/injection, schedule: Q01DX005 (ip), vehicle: saline with Tween-80.
Where [2] appears, read: dose: 100.0 mg/kg/injection, schedule: Q01DX005 (ip), vehicle: saline with Tween-80.
Setting [3] is: dose: 200.0 mg/kg/injection, schedule: Q01DX005 (ip), vehicle: saline with Tween-80.
[4] abbreviates: dose: 60.0 mg/kg/injection, schedule: Q01DX005 (ip), vehicle: saline with Tween-80.
Where [5] appears, read: dose: 120.0 mg/kg/injection, schedule: Q01DX005 (ip), vehicle: saline with Tween-80.
The mark [6] stands for this setting: dose: 240.0 mg/kg/injection, schedule: Q01DX005 (ip), vehicle: saline with Tween-80.
[7] abbreviates: dose: 25.0 mg/kg/injection, schedule: Q04DX003 (ip), vehicle: saline.
[8] abbreviates: dose: 50.0 mg/kg/injection, schedule: Q01DX005 (ip), vehicle: Klucel (hydroxypropylcellulose) (HPC).
[9] abbreviates: dose: 100.0 mg/kg/injection, schedule: Q01DX005 (ip), vehicle: Klucel (hydroxypropylcellulose) (HPC).
Setting [10] is: dose: 200.0 mg/kg/injection, schedule: Q01DX005 (ip), vehicle: Klucel (hydroxypropylcellulose) (HPC).
[11] abbreviates: dose: 100.0 mg/kg/injection, schedule: Q04DX003 (ip), vehicle: Klucel (hydroxypropylcellulose) (HPC).
Setting [12] is: dose: 200.0 mg/kg/injection, schedule: Q04DX003 (ip), vehicle: Klucel (hydroxypropylcellulose) (HPC).
Setting [13] is: dose: 100.0 mg/kg/injection, schedule: Q04DX003 (ip), vehicle: saline.

For `Cc1c2oc3c(C)ccc(C(=O)NC4C(=O)NC(C(C)C)C(=O)N5CCCCC5C(=O)N(C)CC(=O)N(C)C(C(C)C)C(=O)OC4C)c3nc-2c(C(=O)NC2C(=O)NC(C(C)C)C(=O)N3CCCCC3C(=O)N(C)CC(=O)N(C)C(C(C)C)C(=O)OC2C)c(N)c1=O` (centres undefined) (I: TV[Pip][Sar][NMeV] / II: TV[Pip][Sar][NMeV]; ester I:1-I:C, II:1-II:C; linker I:N-II:N via Actinocin(9to1); configuration not given here), the T/C by setting is: (dose: 0.39 mg/kg/injection, schedule: Q01DX009 (ip), vehicle: saline with Tween-80) 110 % of control; (dose: 0.78 mg/kg/injection, schedule: Q01DX009 (ip), vehicle: saline with Tween-80) 119 % of control; (dose: 1.56 mg/kg/injection, schedule: Q01DX009 (ip), vehicle: saline with Tween-80) 180 % of control; (dose: 3.12 mg/kg/injection, schedule: Q01DX009 (ip), vehicle: saline with Tween-80) 190 % of control; (dose: 6.25 mg/kg/injection, schedule: Q01DX009 (ip), vehicle: saline with Tween-80) 165 % of control and 209 % of control; (dose: 12.5 mg/kg/injection, schedule: Q01DX009 (ip), vehicle: saline with Tween-80) 195 % of control.

Take `CCOC(=O)C(NC(=O)C(Cl)Cl)C(O)c1ccccc1` (centres undefined): the T/C was 100 % of control under setting [1], 100 % of control under setting [2] and 89 % of control under setting [3].

For the compound `BrC1=CC(Br)=C2N=C(C(Br)(Br)Br)N=C3N=C(C(Br)(Br)Br)N=C1N32`, the T/C is 106 % of control (dose: 15.0 mg/kg/injection, schedule: Q01DX005 (ip), vehicle: Klucel + Tween-80); 109 % of control (dose: 30.0 mg/kg/injection, schedule: Q01DX005 (ip), vehicle: Klucel + Tween-80); 103 % of control and 110 % of control (dose: 60.0 mg/kg/injection, schedule: Q01DX005 (ip), vehicle: Klucel + Tween-80).

Consider `O=S1(=O)c2ccccc2N(c2ccccc2)C2=NCCN21`, for which the T/C runs as follows: under setting [4], 91 % of control; under setting [5], 99 % of control; under setting [6], 97 % of control.

With `N=C(N)c1ccc(/C=C/c2cc3cc(C(=N)N)ccc3[nH]2)cc1`, the T/C was 101 % of control and 108 % of control (dose: 6.25 mg/kg/injection, schedule: Q04DX003 (ip), vehicle: saline); 99 % of control and 102 % of control (dose: 12.5 mg/kg/injection, schedule: Q04DX003 (ip), vehicle: saline); 99 % of control and 101 % of control under setting [7].

`COc1ccc2c(n1)Sc1nc3ccccc3nc1N2`: the T/C under setting [4] is 100 % of control, the T/C under setting [5] was 100 % of control and the T/C under setting [6] was 101 % of control.

Consider `O=C(c1nc2ccccc2[nH]1)N1CCN(c2ccccc2)CC1`, for which the T/C by setting is: under setting [8], 104 % of control; under setting [9], 107 % of control and 95 % of control; under setting [10], 101 % of control and 110 % of control.

In the case of `CN(C)P1(=O)OCC(C(C)(C)C)CN1c1ccccc1` (centres undefined), the T/C was 97 % of control under setting [11] and 97 % of control under setting [12].

`COc1cccc(C2c3cc4c(cc3OC(C)(O)C2C)OCO4)c1OC` (centres undefined): the T/C reads like this: (dose: 60.0 mg/kg/injection, schedule: Q01DX005 (ip), vehicle: Klucel (hydroxypropylcellulose) (HPC)) 103 % of control; (dose: 120.0 mg/kg/injection, schedule: Q01DX005 (ip), vehicle: Klucel (hydroxypropylcellulose) (HPC)) 97 % of control; (dose: 240.0 mg/kg/injection, schedule: Q01DX005 (ip), vehicle: Klucel (hydroxypropylcellulose) (HPC)) 95 % of control.

With `CCC(=O)n1nc(Nc2ccccc2)c(C(=O)OC)c1C`, the T/C is 99 % of control (dose: 6.25 mg/kg/injection, schedule: Q01DX005 (ip), vehicle: saline with Tween-80); 94 % of control (dose: 12.5 mg/kg/injection, schedule: Q01DX005 (ip), vehicle: saline with Tween-80); 94 % of control (dose: 25.0 mg/kg/injection, schedule: Q01DX005 (ip), vehicle: saline with Tween-80); 86 % of control under setting [3].

For `CC(=O)c1c(C)[nH]c(-c2ccccc2)c1NS(=O)(=O)c1ccc(N)cc1`, the T/C is, setting by setting: under setting [4], 98 % of control; under setting [5], 91 % of control.

For `N/C(=N\OC(=O)NC(Cl)=C(Cl)Cl)c1cc(C(F)(F)F)cc(C(F)(F)F)c1`, the T/C is, setting by setting: under setting [1], 102 % of control; under setting [2], 102 % of control; under setting [3], 100 % of control.

Turning to `CCOC(=O)C/C(C)=N\NC(=O)c1ccncc1`, the T/C runs as follows: (dose: 37.0 mg/kg/injection, schedule: Q01DX009 (ip), vehicle: saline with Tween-80) 97 % of control; (dose: 75.0 mg/kg/injection, schedule: Q01DX009 (ip), vehicle: saline with Tween-80) 105 % of control; (dose: 150.0 mg/kg/injection, schedule: Q01DX009 (ip), vehicle: saline with Tween-80) 106 % of control.

As for `CN1C(=O)NC(=O)C(=C2C=C(c3ccccc3)C(C#N)(c3ccccc3)C(c3ccccc3)=C2)C1=O` (centres undefined), the T/C is 97 % of control under setting [8], 97 % of control under setting [9] and 101 % of control under setting [10].

Turning to `CSc1nc2c(=O)[nH]cnc2s1`, the T/C is, setting by setting: under setting [4], 105 % of control; under setting [5], 102 % of control; under setting [6], 96 % of control.

Regarding `COc1cccc(C2NC(c3cccc(OC)c3)C3CCCC2C3=O)c1` (centres undefined), the T/C reads like this: (dose: 25.0 mg/kg/injection, schedule: Q01DX005 (ip), vehicle: Klucel (hydroxypropylcellulose) (HPC)) 103 % of control; under setting [8], 102 % of control; under setting [9], 106 % of control; under setting [10], 102 % of control.

With `O=C(O)c1c[nH]c2cc(OCCOc3ccc4ccccc4c3)ccc2c1=O`, the T/C runs as follows: under setting [13], 99 % of control; (dose: 200.0 mg/kg/injection, schedule: Q04DX003 (ip), vehicle: saline) 88 % of control; (dose: 400.0 mg/kg/injection, schedule: Q04DX003 (ip), vehicle: saline) 94 % of control.

As to `c1ccc(C(NC2=NCCCCCC2)c2ccco2)cc1` (centres undefined), the T/C runs as follows: (dose: 7.5 mg/kg/injection, schedule: Q01DX005 (ip), vehicle: saline with Tween-80) 99 % of control; (dose: 15.0 mg/kg/injection, schedule: Q01DX005 (ip), vehicle: saline with Tween-80) 93 % of control; (dose: 30.0 mg/kg/injection, schedule: Q01DX005 (ip), vehicle: saline with Tween-80) 101 % of control.

Regarding `CC1=C(Cl)CC(/C(C)=C/Cl)OC1(O)CBr` (centres undefined), the T/C is, setting by setting: (dose: 0.1 mg/kg/injection, schedule: Q01DX009 (ip), vehicle: Klucel (hydroxypropylcellulose) (HPC)) 100 % of control; (dose: 0.2 mg/kg/injection, schedule: Q01DX009 (ip), vehicle: Klucel (hydroxypropylcellulose) (HPC)) 100 % of control; (dose: 0.38 mg/kg/injection, schedule: Q01DX009 (ip), vehicle: Klucel (hydroxypropylcellulose) (HPC)) 95 % of control; (dose: 0.4 mg/kg/injection, schedule: Q01DX009 (ip), vehicle: Klucel (hydroxypropylcellulose) (HPC)) 97 % of control.

With `CC[CH2][Pb]([CH2]CC)([CH2]CC)[O]C(=O)C(F)(F)F`, the T/C (dose: 3.13 mg/kg/injection, schedule: Q01DX009 (ip), vehicle: saline) is 117 % of control.

As to `Cc1ccccc1C(=O)Nc1ccccc1-c1ccccc1N`, the T/C by setting is: under setting [7], 95 % of control; (dose: 50.0 mg/kg/injection, schedule: Q04DX003 (ip), vehicle: saline) 99 % of control; under setting [13], 90 % of control and 91 % of control.

On to `CC(=O)c1c(C)cc(C)c(C(C)=O)c1C`, for which the T/C is 102 % of control (dose: 50.0 mg/kg/injection, schedule: Q01DX009 (ip), vehicle: saline); 96 % of control (dose: 100.0 mg/kg/injection, schedule: Q01DX009 (ip), vehicle: saline); 91 % of control (dose: 200.0 mg/kg/injection, schedule: Q01DX009 (ip), vehicle: saline).

With `CN(C(=O)C(Cl)Cl)c1ccc(-c2csc(Cc3ccccc3)n2)cc1`, the T/C is, setting by setting: under setting [11], 101 % of control; under setting [12], 99 % of control; (dose: 400.0 mg/kg/injection, schedule: Q04DX003 (ip), vehicle: Klucel (hydroxypropylcellulose) (HPC)) 97 % of control.

For the compound `COc1ccc(NC(=S)Nc2ccccc2C(F)(F)F)c(OC)c1`, the T/C is, setting by setting: (dose: 50.0 mg/kg/injection, schedule: Q01DX009 (ip), vehicle: Klucel (hydroxypropylcellulose) (HPC)) 99 % of control; (dose: 100.0 mg/kg/injection, schedule: Q01DX009 (ip), vehicle: Klucel (hydroxypropylcellulose) (HPC)) 95 % of control; (dose: 200.0 mg/kg/injection, schedule: Q01DX009 (ip), vehicle: Klucel (hydroxypropylcellulose) (HPC)) 94 % of control.
